# In US4215135A, “Antiinflammatory 2-substituted-1H-phenanthro[9,10-d]imidazoles” (E. I. Du Pont de Nemours and Company, priority 1979, dated 1980):
# Test system: adjuvant-induced arthritis in rats
# Assay: Established adjuvant-induced arthritis in rats (A.A.)
# Format: in vivo, Charles River Lewis male rats
# Settings: Rattus norvegicus, 24 h; oral gavage, 7 daily doses; established adjuvant arthritis; uninjected left hind paw volume one day after last dose; read-out: A.A. ED50% (% paw volume reduction from control)
row,SMILES,ED50 [mg/kg]
1,"CC(C)Cc1ccc(C(C)C(=O)O)cc1 (stereo not drawn) [Ibuprofen, reference compound]",100
2,"CCCCC1C(=O)N(c2ccccc2)N(c2ccccc2)C1=O [Phenylbutazone, reference compound]",10

# Same assay, conditions: Rattus norvegicus, po, 24 h, read-out: A.A. ED50% (% paw volume reduction from control)
row,SMILES,ED50 [mg/kg]
1,"FC(F)C(F)(F)Sc1nc2c3ccccc3c3ccccc3c2[nH]1 [Example 2, 2-[(1,1,2,2-tetrafluoroethyl)thio]-1H-phenanthro[9,10-d]imidazole]",> 25
2,"Fc1ccc2c(c1)c1cc(F)ccc1c1[nH]c(SC(F)(F)C(F)F)nc21 [Example 7, 6,9-Difluoro-2-[(1,1,2,2-tetrafluoroethyl)thio]-1H-phenanthro-[9,10-d]imidazole]",0.45
3,"O=S(=O)(c1nc2c3ccc(F)cc3c3cc(F)ccc3c2[nH]1)C(F)(F)C(F)F [Example 8, 6,9-Difluoro-2-[(1,1,2,2-tetrafluoroethyl)sulfonyl]-1H-phenanthro[9,10-d]imidazole]",0.8
4,"COc1ccc2c(c1)c(CC(=O)O)c(C)n2C(=O)c1ccc(Cl)cc1 [Indomethacin, reference compound]",0.3
5,"CC(=O)Oc1ccccc1C(=O)O [Aspirin, reference compound]",305
6,"O=S(=O)(c1nc2c3ccccc3c3ccccc3c2[nH]1)C(F)(F)C(F)F [Example 3, 2-[(1,1,2,2-Tetrafluoroethyl)sulfonyl]-1H-phenanthro-[9,10-d]-imidazole]",28

# Test system: phenylquinone-induced writhing (pain) in mice
# Assay: Phenylquinone writhing test
# Format: in vivo, female white mice
# Settings: Mus musculus; oral; phenylquinone i.p.; footnote: at 2 hours; read-out: ED50 (effective analgesic dose for 50% of the mice)
# Procedure: A procedure for detecting and comparing the analgesic activity of compounds in this series and standard drugs for which there is a good correlation with human efficacy is the phenylquinone writhing test.
# The phenylquinone writhing test, modified from Siegmund, et al., Proc. Soc. Exp. Biol. Med. 95, 729 (1957), was employed. A test compound suspended in 1% methylcellulose was given orally to fasted (17-21 hours) female white mice, 5-20 animals per double blind test. […] […] The effective analgesic dose for 50% of the mice (ED50) was calculated by the moving average method of Thompson, W. R., Bact. Rev. 11, 115-145 (1947).
row,SMILES,ED50 [mg/kg]
1,"COc1ccc2c(c1)c1cc(OC)ccc1c1[nH]c(S(=O)(=O)C(F)(F)F)nc21 [Example 6, 6,9-Dimethoxy-2-(trifluoromethylsulfonyl)-1H-phenanthro-[9,10-d]imidazole]",29
